# Where a name gives a salt, the structure may show the parent alone.
# System: Human renal cell cancer OS-RC-2
# Experiment: Test on antitumor effect of Example 6, OS-RC-2
# Type: in vivo, nude mice
# Conditions: 20 mg/kg in terms of epirubicin, i.v. once
# Method: Human renal cell cancer OS-RC-2 was transplanted into nude mice similarly to Test Example 15, and after tumor engraftment was confirmed, the composition of Example 6 according to the present invention was dissolved in 5% glucose. The solution was intravenously administered through the caudal vein once at a dose of 10 or 20 mg/kg in terms of epirubicin. Furthermore, as a control drug, epirubicin hydrochloride was dissolved in a physiological solution, and the solution was intravenously administered through the caudal vein once at a dose of 10 or 20 mg/kg in terms of epirubicin.
# After the administration, the major axis (L) and the minor axis (W) of a tumor were measured using calipers at an interval of 2 to 3 days, the tumor volume was calculated by the formula: (L×W^2)/2, and the tumor volume change rate from the administration initiation day was determined.
smiles,measurement,value
COc1cccc2c1C(=O)c1c(O)c3c(c(O)c1C2=O)C[C@@](O)(C(=O)CO)C[C@@H]3O[C@H]1C[C@H](N)[C@@H](O)[C@H](C)O1 [epirubicin hydrochloride],Toxicity (death of mice),the mice died 8 days after the administration due to toxicity
